The subject of the series is rodent carcinogenicity bioassays, tumor incidence. Nature of the series: CCRIS carcinogenicity studies. To be noted: Dose: 0, Dose: 0. The method in brief: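 Archive of carcinogenicity, mutagenicity, tumor promotion and tumor inhibition results drawn from journals, NCI reports and other sources, expert-reviewed; covers 1985-2011 and is no longer updated.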

Activity calls are given as the source filed them. How the calls were made is not given here.

`CCCCCOC(=O)COc1cc(N2C(=O)C3=C(CCCC3)C2=O)c(F)cc1Cl`: the carcinogen call was “inactive; negative” (Species: Mouse, Strain/Sex: CD-1 (ICR)/Female (51/Group), Route: Oral, 37.8, 368.1, 850.1 mg/kg/day of 94.7% flumiclorac pentyl in diet for 78 wk, study duration 78 wk, 37.8, 368.1, 850.1 mg/kg/day of 94.7% flumiclorac pentyl in diet for 78 wk, study duration 78 wk); “inactive; negative” (Species: Mouse, Strain/Sex: CD-1 (ICR)/Male (51/Group), Route: Oral, 31.5, 307.9, 731.4 mg/kg/day of 94.7% flumiclorac pentyl in diet for 78 wk, study duration 78 wk, 31.5, 307.9, 731.4 mg/kg/day of 94.7% flumiclorac pentyl in diet for 78 wk, study duration 78 wk); “inactive; negative” (Species: Rat, Strain/Sex: Crj:CD(SD)/Female (50/Group), Route: Oral, 4.3, 43.6, 443.8, 919.4 mg/kg/day of 94.4% flumiclorac pentyl in diet for 24 mo, study duration 24 mo, 4.3, 43.6, 443.8, 919.4 mg/kg/day of 94.4% flumiclorac pentyl in diet for 24 mo, study duration 24 mo); “inactive; negative” (Species: Rat, Strain/Sex: Crj:CD(SD)/Male (50/Group), Route: Oral, 3.5, 35.4, 360.4, 744.9 mg/kg/day of 94.4% flumiclorac pentyl in diet for 24 mo, study duration 24 mo, 3.5, 35.4, 360.4, 744.9 mg/kg/day of 94.4% flumiclorac pentyl in diet for 24 mo, study duration 24 mo).

Regarding `COc1c(Cl)c(Cl)c([N+](=O)[O-])c(Cl)c1Cl`, the carcinogen call was “inactive; negative” (Species: MOUSE, Strain/Sex: B6C3F1/FEMALE, Route: ORAL, 0.006, 0.012% OF DIET, 0.006, 0.012% OF DIET); “inactive; negative” (Species: MOUSE, Strain/Sex: B6C3F1/MALE, Route: ORAL, 0.006, 0.012% OF DIET, 0.006, 0.012% OF DIET); “inactive; negative” (Species: RAT, Strain/Sex: F344/FEMALE, Route: ORAL, 0.006, 0.012% OF DIET, 0.006, 0.012% OF DIET); “inactive; negative” (Species: RAT, Strain/Sex: F344/MALE, Route: ORAL, 0.006, 0.012% OF DIET, 0.006, 0.012% OF DIET).

For the molecule `O.O.O.O.O.O.O.O=S(=O)(O)O.[Co+2]`, the carcinogen call was “active; positive” (Species: MOUSE, Strain/Sex: B6C3F1/FEMALE, Route: INHALATION, 0.3, 1, 3 MG/M3 6HR/D 5 D/WK FOR 105 WK (STUDY DURATION: 105 WK), 0.3, 1, 3 MG/M3 6HR/D 5 D/WK FOR 105 WK (STUDY DURATION: 105 WK), Tumor Site: Type of Lesion: LUNG: ALVEOLAR/BRONCHIOLAR ADENOMA, ALVEOLAR/BRONCHIOLAR CARCINOMA); “active; positive” (Species: MOUSE, Strain/Sex: B6C3F1/MALE, Route: INHALATION, 0.3, 1, 3 MG/M3 6HR/D 5 D/WK FOR 105 WK (STUDY DURATION: 105 WK), 0.3, 1, 3 MG/M3 6HR/D 5 D/WK FOR 105 WK (STUDY DURATION: 105 WK), Tumor Site: Type of Lesion: LUNG: ALVEOLAR/BRONCHIOLAR ADENOMA, ALVEOLAR/BRONCHIOLAR CARCINOMA); “active; positive” (Species: RAT, Strain/Sex: F344/FEMALE, Route: INHALATION, 0.3, 1, 3 MG/M3 6HR/D 5 D/WK FOR 105 WK (STUDY DURATION: 105 WK), 0.3, 1, 3 MG/M3 6HR/D 5 D/WK FOR 105 WK (STUDY DURATION: 105 WK), Tumor Site: Type of Lesion: LUNG: ALVEOLAR/BRONCHIOLAR ADENOMA, ALVEOLAR/BRONCHIOLAR CARCINOMA, ADRENAL MEDULLA: BENIGN, COMPLEX, OR MALIGNANT PHEOC); “active; positive” (Species: RAT, Strain/Sex: F344/N/MALE, Route: INHALATION, 0.3, 1, 3 MG/M3 6HR/D 5 D/WK FOR 105 WK (STUDY DURATION: 105 WK), 0.3, 1, 3 MG/M3 6HR/D 5 D/WK FOR 105 WK (STUDY DURATION: 105 WK), Tumor Site: Type of Lesion: LUNG: ALVEOLAR/BRONCHIOLAR ADENOMA).

Consider `C[C@]12CCC(=O)C=C1CC[C@@H]1[C@@H]2CC[C@]2(C)C(=O)CC[C@@H]12`, for which the carcinogen call was “active; positive. (authors describe as clear evidence)” (Species: Mouse, Strain/Sex: B6C3F1/Female (50/Group), Route: Oral, 2, 10, 50 mg/kg in 0.5% methylcellulose solution, by gavage, 5 d/wk for 2 yr, 2, 10, 50 mg/kg in 0.5% methylcellulose solution, by gavage, 5 d/wk for 2 yr, Tumor Site: Type of Lesion: Liver: hepatocellular adenoma (14/50, 16/50, 18/50, 28/50), hepatocellular carcinoma (5/50, 13/50, 15/50, 15/50), hepato, Tumor Site: Type of Lesion: Liver: hepatocellular adenoma (14/50, 16/50, 18/50, 28/50), hepatocellular carcinoma (5/50, 13/50, 15/50, 15/50), hepato); “active; positive. (authors describe as clear evidence)” (Species: Mouse, Strain/Sex: B6C3F1/Male (50/Group), Route: Oral, 10, 20, 50 mg/kg in 0.5% methylcellulose solution, by gavage, 5 d/wk for 2 yr, 10, 20, 50 mg/kg in 0.5% methylcellulose solution, by gavage, 5 d/wk for 2 yr, Tumor Site: Type of Lesion: Liver: hepatocellular adenoma, multiple (16/50, 27/50, 23/50, 34/50), hepatocellular adenoma (includes multiples) (32/50); “inactive; negative. (authors describe as equivocal evidence based on incidence of mononucl” (Species: Rat, Strain/Sex: F344/N / Female (50/Group), Route: Oral, 10, 20, 50 mg/kg in 0.5% methylcellulose solution, by gavage, 5 d/wk for 2 yr, 10, 20, 50 mg/kg in 0.5% methylcellulose solution, by gavage, 5 d/wk for 2 yr); “inactive; negative. (authors describe as equivocal evidence based on alveolar/bronchiolar” (Species: Rat, Strain/Sex: F344/N / Male (50/Group), Route: Oral, 10, 20, 50 mg/kg in 0.5% methylcellulose solution, by gavage, 5 d/wk for 2 yr, 10, 20, 50 mg/kg in 0.5% methylcellulose solution, by gavage, 5 d/wk for 2 yr).

For `CNC[C@H](O)c1cccc(O)c1`, the carcinogen call is “inactive; negative” (Species: MOUSE, Strain/Sex: B6C3F1/FEMALE, Route: ORAL, 1250, 2500 PPM IN DIET FOR 103 WK, 1250, 2500 PPM IN DIET FOR 103 WK); “inactive; negative” (Species: MOUSE, Strain/Sex: B6C3F1/MALE, Route: ORAL, 1250, 2500 PPM IN DIET FOR 103 WK, 1250, 2500 PPM IN DIET FOR 103 WK); “inactive; negative” (Species: RAT, Strain/Sex: F344/FEMALE, Route: ORAL, 620, 1250 PPM IN DIET FOR 103 WK, 620, 1250 PPM IN DIET FOR 103 WK); “inactive; negative” (Species: RAT, Strain/Sex: F344/MALE, Route: ORAL, 620, 1250 PPM IN DIET FOR 103 WK, 620, 1250 PPM IN DIET FOR 103 WK).

Source of the values: PubChem BioAssay AID1259411 (Chemical Carcinogenesis Research Information System (CCRIS), 2018).
